“Also recorded” adds a separate entry of the source. Where no end group is shown, it is not given here. [ ]: non-standard residue; d: D form.
Columns and labels:
[1] = tested on: Murine psoriasis vulgaris-like skin inflammation model; assay: IMQ-induced psoriasis vulgaris-like skin inflammation model, keratinocyte proliferation by BrdU incorporation; type: in vivo, BALB/c mice; conditions: 25 μM with IMQ cream, day 6; IMQ control 24.5±2.0; FIG. 9 panel B
Experimental: (§1) BALB/c mice (8-weeks old females; n=42) were used in this model system. […] Accordingly, in this model, each BALB/c mice received a daily topical dose (62.5 mg) of commercially available IMQ cream (Imiquimod Cream 5% w/w, Aldara™) on the shaved back and the right ear for 6 consecutive days (n=6); whereas the control mice (normal group) were treated with a control cream (n=6). For treatment, each test peptide was mixed with IMQ cream to give a concentration of 25 μM (n=6 per group). Keratinocyte proliferation was determined by BrdU incorporation. BrdU (Sigma-Aldrich) was reconstituted in DMSO as a stock solution of 80 mM. 10 μl of BrdU mixed with 90 μl of PBS was intraperitoneally injected into each mouse for 24 hr prior to euthanasia.
(§2) Slides were blocked with 10% goat serum for 60 min and then incubated with primary antibody against BrdU (1:50 dilution; GTX42641) for 3 hr at RT. The slides were then incubated with peroxidase-labeled donkey immunoglobulin for 30 min and then incubated with chromogen substrate (3,3′-diaminobenzidine) for 2 min before counterstaining with hematoxylin. Quantification was estimated based on high quality images (1208×960 pixels buffer) captured using a Nikon Eclipse 80i light microscope.

[2] = tested on: Murine dry eye model; assay: Dry eye animal model, tear production by phenol red thread test; type: in vivo, C57BL/6 mice; conditions: treated for 4 days; P<0.01 versus vehicle treatment; FIG. 4
Experimental: (§3) C57BL/6 mice (7-8 weeks old, each weighted about 18 to 25 g) were used in this model system. All mice were maintained in the animal facility in accordance with the procedures approved by Mackay Memorial Hospital Review Board (Taiwan, R.O. C.). All animal experimental procedures were conducted according to the ARVO Statement for the Use of Animals in Ophthalmic and Vision Research.
(§4) Dry eyes were induced by placing mice in a controlled environment chamber (CEC) for 14 days in accordance with procedures previously described by Barabino et al (IVOS (2005) 46(8), 2766-2771). Mice placed in the CEC were exposed to a condition, in which relative humidity (RH) was maintained at <25%, temperature at 20-22° C., and airflow at about 15 L/min, for 12 hours per day. Control mice were kept in a normal environment (RH>50%, no air flow, temperature of 20-22° C.) for the same duration.
(§5) A common artificial tear formulation, 1% carboxymethylcelllulose (CMC) dissolved in balanced salt solution (BSS) was used as the peptide vehicle. Peptide (50 μM) or 1% CMC vehicle was topically administered to eyes three times a day, for 4 days.
Tear production was measured with phenol red-impregnated cotton threads (Zone-Quick; Oasis, Glendora, Calif.). The validity of this test in mice was performed as previously described (Dursun et al., Invest Ophthalmol Vis Sci. 2002; 43:632-8). The threads were held with jeweler forceps and placed in the lateral canthus for 60 seconds. The tear production expressed in millimeters of thread wet by the tear and turned red.

[3] = tested on: myeloma RPMI 8226 cell; assay: MTT assay, cell viability; type: cell-based, human; conditions: 20 μM peptide, 24 h, serum-free RPMI1640; FIGS. 1-2
Experimental: The multiple myeloma line RPMI8226 or […] Raw264.7 macrophages were cultivated in complex medium (RPMI1640) supplemented with 10% (vol/vol) heat-inactivated fetal calf serum (Invitrogen), 50 μg/mL penicillin, 50 μg/mL streptomycin, and 2 mM L-glutamine at 37° C. in a 5% CO2 atmosphere
RPMI8226 cells or U266 cells were cultured in serum-free RPMI1640 medium for 24 h, and then cells seeded in 48-well culture plates (3×10^5 cells/well) and cultured in 0.5 ml fresh serum-free RPMI1640 medium containing 20 μM peptide for further 24 h. The cell viability was determined by the MTT assay.
50 μL of the MTT stock solution (5 mg MTT dissolved in 1 ml of sterile PBS) was added to each well, and 50 μL of the MTT stock solution was added to 500 μL of medium alone and used as a negative control. Each sample was Incubates at 37° C. for 4 hours. Aliquots (450 μl) from each sample were taken to a new well of 48-well culture plate, adding 100 μL DMSO, mixing thoroughly using the pipette and reacted at 37° C. for 20 min and absorbance was measured at 570 nm.

[4] = tested on: Murine dry eye model; assay: Dry eye animal model, fluorescein eye stain test for corneal injuries; type: in vivo, C57BL/6 mice; conditions: peptide 50 μM topically three times a day for 4 days; for reduction in mean corneal fluorescein staining score compared with vehicle treated control mice: FIG. 3 panel B
Experimental: as §3, §4, §5
Corneal epithelial injury was determined by staining with topical fluorescein (100 mg/ml or 10%; FLUORESCITE™, Alcon Laboratories). For dosing, topical fluorescein (0.6 μL of 0.5% sodium fluorescein dissolved in 4.4 μL BSS per eye) was applied via a micro-pipette to the lateral canthus for 15 sec. Corneal fluorescein staining was examined with a slit-lamp biomicroscope under cobalt blue light and photographed with a digital camera. Data is presented as mean±SD. Dye staining of the cornea was scored in a blinded manner as follows: score 0 for no punctuate staining; score 1 when less than one third of the cornea was stained; score 2 when two thirds or less was stained; and score 3 when more than two thirds was stained.

[5] = tested on: Murine psoriasis vulgaris-like skin inflammation model; assay: IMQ-induced psoriasis vulgaris-like skin inflammation model, H&E histology of back skin; type: in vivo, BALB/c mice; conditions: 25 μM with IMQ cream, 6 days; IMQ control 122±10.5; FIG. 8 panel B
Experimental: as §1
Back skin of the mouse was fixed overnight in 4% paraformaldehyde, dehydrated with graded ethanol series, and paraffinized. Fixed samples were deparaffinized in xylene and rehydrated in a graded series of ethanol. Tissues were sliced into 5-μm sections. General histology was performed using hematoxylin and eosin (H&E) (Merck, Rayway, N.J., USA).
as §2

Substance	tear volume (tear production) [2]	myeloma RPMI 8226 cell viability (MTT assay) [3]	reduction in mean corneal fluorescein staining score compared with vehicle treated control mice [4]	other results
NH2-(D-Asp)-Ile-Thr-Tyr-Val-Arg-Leu-Lys-Phe-COOH ([dD]ITYVRLKF; not fully specified (N-terminus, C-terminus); printed as NH2-(D-Asp)-Ile-Thr-Tyr-Val-Arg-Leu-Lys-Phe-COOH) [9-mer DD, 9-mer analogue, aspartate replaced by D-form aspartate]	–	–	–	hyperproliferation of keratinocytes, BrdU-positive cells in the epidermis (labeling index) [1]: 23.3±2.5%
NH2-Ala-Ile-Thr-Tyr-Val-Arg-Leu-Lys-Phe-COOH (AITYVRLKF; not fully specified (N-terminus, C-terminus); printed as NH2-Ala-Ile-Thr-Tyr-Val-Arg-Leu-Lys-Phe-COOH) [9-mer Da, 9-mer analogue, aspartate replaced by alanine]	significantly increased	sustain part of the inhibitory activity	about 3 fold	–
NH2-Asp-Ala-Thr-Tyr-Val-Arg-Leu-Lys-Phe-COOH (DATYVRLKF; not fully specified (N-terminus, C-terminus); printed as NH2-Asp-Ala-Thr-Tyr-Val-Arg-Leu-Lys-Phe-COOH) [9-mer Ia, 9-mer analogue, isoleucine replaced by alanine]	–	loss of the inhibitory activity	–	–
NH2-Asp-Ile-Ala-Tyr-Val-Arg-Leu-Lys-Phe-COOH (DIAYVRLKF; not fully specified (N-terminus, C-terminus); printed as NH2-Asp-Ile-Ala-Tyr-Val-Arg-Leu-Lys-Phe-COOH) [9-mer Ta, 9-mer analogue, threonine replaced by alanine]	–	loss of the inhibitory activity	–	–
NH2-Asp-Ile-Thr-Ala-Val-Arg-Leu-Lys-Phe-COOH (DITAVRLKF; not fully specified (N-terminus, C-terminus); printed as NH2-Asp-Ile-Thr-Ala-Val-Arg-Leu-Lys-Phe-COOH) [9-mer Ya, 9-mer analogue, tyrosine replaced by alanine]	–	loss of the inhibitory activity	–	–
NH2-Asp-Ile-Thr-Tyr-Ala-Arg-Leu-Lys-Phe-COOH (DITYARLKF; not fully specified (N-terminus, C-terminus); printed as NH2-Asp-Ile-Thr-Tyr-Ala-Arg-Leu-Lys-Phe-COOH) [9-mer Va, 9-mer analogue, valine replaced by alanine]	significantly increased	sustain part of the inhibitory activity	about 3 fold	–
NH2-Asp-Ile-Thr-Tyr-Val-Ala-Leu-Lys-Phe-COOH (DITYVALKF; not fully specified (N-terminus, C-terminus); printed as NH2-Asp-Ile-Thr-Tyr-Val-Ala-Leu-Lys-Phe-COOH) [9-mer Ra, 9-mer analogue, arginine replaced by alanine]	–	loss of the inhibitory activity	–	–
NH2-Asp-Ile-Thr-Tyr-Val-Arg-Ala-Lys-Phe-COOH (DITYVRAKF; not fully specified (N-terminus, C-terminus); printed as NH2-Asp-Ile-Thr-Tyr-Val-Arg-Ala-Lys-Phe-COOH) [9-mer La, 9-mer analogue, leucine replaced by alanine]	–	loss of the inhibitory activity	–	–
NH2-Asp-Ile-Thr-Tyr-Val-Arg-Leu-Ala-Phe-COOH (DITYVRLAF; not fully specified (N-terminus, C-terminus); printed as NH2-Asp-Ile-Thr-Tyr-Val-Arg-Leu-Ala-Phe-COOH) [9-mer Ka, 9-mer analogue, lysine replaced by alanine]	–	loss of the inhibitory activity	–	–
NH2-Asp-Ile-Thr-Tyr-Val-Arg-Leu-Lys-(D-Phe)-COOH (DITYVRLK[dF]; not fully specified (N-terminus, C-terminus); printed as NH2-Asp-Ile-Thr-Tyr-Val-Arg-Leu-Lys-(D-Phe)-COOH) [9-mer DF, 9-mer analogue, phenylalanine in D-form]	significantly increased	–	about 3 fold	acanthosis, quantified epidermal thickness [5]: 35.7±4.2 μm; hyperproliferation of keratinocytes, BrdU-positive cells in the epidermis (labeling index) [1]: 6.3±1.2%
NH2-Asp-Ile-Thr-Tyr-Val-Arg-Leu-Lys-Ala-COOH (DITYVRLKA; not fully specified (N-terminus, C-terminus); printed as NH2-Asp-Ile-Thr-Tyr-Val-Arg-Leu-Lys-Ala-COOH) [9-mer Fa, 9-mer analogue, phenylalanine replaced by alanine]	significantly increased	sustain part of the inhibitory activity	about 3 fold	–
NH2-Ile-Thr-Tyr-Val-Arg-Leu-Lys-Ala-COOH (ITYVRLKA; not fully specified (N-terminus, C-terminus); printed as NH2-Ile-Thr-Tyr-Val-Arg-Leu-Lys-Ala-COOH) [8-mer, control 8-mer peptide, aspartate residue of the 9-mer deleted]	–	–	–	corneal fluorescein stain (corneal damage), result in words ([4]; vs vehicle): no such effect
NH2-Lys-Ala-Phe-Asp-Ile-Thr-Tyr-Val-Arg-Leu-Lys-Phe-COOH (KAFDITYVRLKF; not fully specified (N-terminus, C-terminus); printed as NH2-Lys-Ala-Phe-Asp-Ile-Thr-Tyr-Val-Arg-Leu-Lys-Phe-COOH) [12-mer, 9-mer with additional 3 amino acid residues at the N-terminal]	significantly increased	successfully suppressed myeloma RPMI 8226 cell viability; also recorded: effective in suppressing myeloma cell viability; also recorded: more potent at lower dose	about 3 fold	acanthosis, quantified epidermal thickness [5]: 35.3±4.1 μm; hyperproliferation of keratinocytes, BrdU-positive cells in the epidermis (labeling index) [1]: 8.5±1.4%
